From ChEMBL document CHEMBL4004854, “Pyrrolo[3',2':6,7]cyclohepta[1,2-b]pyridines with potent photo-antiproliferative activity” (Eur J Med Chem, 2017) come the findings set out here.

For orientation: CC50 means the concentration giving 50% cytotoxicity. Usually EC50 stands for the concentration giving half of the maximal effect.

The structures appear in SMILES notation. Calls of active or inactive are those of the source. No cut-off for these calls is given here.

The test system of data set [1] is Jurkat. Kind of data set: Induction of lipid peroxidation in human Jurkat cells upon 2.5 J/cm2 UV light irradiation measured after 24 hrs by TBARS assay. It is filed as functional, cell-based.
Data set [2] deals with Jurkat. Kind of data set: Phototoxicity against human Jurkat cells assessed as reduction in cell viability at 0.1 uM preincubated for 30 mins followed by 2.5 J/cm2 UV light irradiation measured after 72 hrs in presence of vitamin E by MTT assay. It is filed as functional, cell-based. On the technique in general: Tetrazolium dyes change colour on reduction, which living cells bring about.

For data set [3], the system named is Jurkat. Description: Phototoxic index, ratio of CC50 for human Jurkat cells under dark condition to EC50 for human Jurkat cells under UV light irradiated condition.
Data set [4] can be described thus: Dark toxicity against human K562 cells assessed as reduction in cell viability after 72 hrs by MTT assay. It is filed as cell-based.
Data set [5] concerns Jurkat. Kind of data set: Phototoxicity against human Jurkat cells assessed as reduction in cell viability at 0.1 uM preincubated for 30 mins followed by 2.5 J/cm2 UV light irradiation measured after 72 hrs in presence of antioxidant GSH by MTT assay. The format is functional, cell-based.
Data set [6] concerns Escherichia coli. Kind of data set: Induction of Escherichia coli pBR322 DNA oxidative damage at 40 uM upon 7.5 J/cm2 UV-A light irradiation in presence of Fpg by ethidium bromide staining based electrophoresis.
Data set [7] relates to MCF7. Description: Phototoxic index, ratio of CC50 for human MCF7 cells under dark condition to EC50 for human MCF7 cells under UV light irradiated condition.
Data set [8] is described as follows: Dark toxicity against human Jurkat cells assessed as reduction in cell viability after 72 hrs by MTT assay. The format is cell-based.
The subject of data set [9] is K562. Kind of data set: Phototoxic index, ratio of CC50 for human K562 cells under dark condition to EC50 for human K562 cells under UV light irradiated condition.
For data set [10], the system named is Jurkat. Description: Phototoxicity against human Jurkat cells assessed as reduction in cell viability at 0.1 uM preincubated for 30 mins followed by 2.5 J/cm2 UV light irradiation measured after 72 hrs in presence of singlet oxygen scavenger sodium azide by MTT assay. It is filed as functional, cell-based.
Data set [11] is described as follows: Solubility of the compound in aqueous acetonitrile solution. It is filed as physicochemical. The conditions noted are these: buffer.
A short description of data set [12]: Dark toxicity against human MCF7 cells assessed as reduction in cell viability after 72 hrs by MTT assay. The format is cell-based.
Data set [13] concerns MCF7. Description: Induction of apoptosis in human MCF7 cells assessed as caspase-3 activation at 0.5 uM upon 2.5 J/cm2 UV light irradiation measured after 24 hrs by Western blot method. The format is functional, cell-based. (In general: Immunoblotting shows a protein as a band on a membrane.)
Data set [14] has as its system Jurkat. Description: Phototoxicity against human Jurkat cells assessed as reduction in cell viability preincubated for 30 mins followed by 1.25 J/cm2 UV light irradiation measured after 48 hrs by MTT assay. The conditions noted are these: light or radiation study. It is filed as functional, cell-based.
Data set [15] relates to Escherichia coli. Kind of data set: Induction of Escherichia coli pBR322 DNA single strand break assessed as open circular form DNA bands at 10 to 40 uM upon 7.5 J/cm2 UV-A light irradiation by ethidium bromide staining based UV transillumination assay.
For data set [16], the system named is Escherichia coli. Kind of data set: Induction of Escherichia coli pBR322 DNA oxidative damage at 40 uM upon 7.5 J/cm2 UV-A light irradiation in presence of endonuclease-3 by ethidium bromide staining based electrophoresis.
For data set [17], the system named is K562. Kind of data set: Phototoxicity against human K562 cells assessed as reduction in cell viability preincubated for 30 mins followed by 1.25 J/cm2 UV light irradiation measured after 48 hrs by MTT assay. It is filed as functional, cell-based. The conditions noted are these: K562, light or radiation study.
Data set [18] concerns MCF7. Kind of data set: Phototoxicity against human MCF7 cells assessed as reduction in cell viability preincubated for 30 mins followed by 1.25 J/cm2 UV light irradiation measured after 48 hrs by MTT assay. It is filed as functional, cell-based. The conditions noted are these: MCF7, light or radiation study.
For data set [19], the system named is Escherichia coli. Kind of data set: Induction of Escherichia coli pBR322 DNA double strand break assessed as linear form DNA bands at 10 to 40 uM upon 7.5 J/cm2 UV-A light irradiation by ethidium bromide staining based UV transillumination assay.
For data set [20], the system named is Jurkat. Description: Phototoxicity against human Jurkat cells assessed as reduction in cell viability at 0.1 uM preincubated for 30 mins followed by 2.5 J/cm2 UV light irradiation measured after 72 hrs in presence of hydroxyl radical scavenger DMTU by MTT assay. It is filed as functional, cell-based.
A short description of data set [21]: Singlet oxygen sensitizing activity in aqueous acetonitrile solution irradiated with nanosecond laser flash photolysis assessed as lowest triplet-excited state by measuring long lived transient life time at 10^-4 M at 450 nanometer under argon saturated condition by spectroscopic method.
The nature of data set [22]: Induction of singlet oxygen photogeneration in aqueous acetonitrile solution of ADPA assessed as photobleaching of anthracene absorption upon 150 Watt mercury light irradiation at 400 nanometer measured up to 2 hrs.
Data set [23] deals with MCF7. Description: Induction of mitochondrial dysfunction in human MCF7 cells assessed as organelle fusion at 400 nM upon UV light irradiation measured after 6 hrs by mitotracker orange CMTM-ROS/LCS1 dye based confocal microscopic method. The format is functional, cell-based.
The test system of data set [24] is MCF7. Kind of data set: Induction of lysosomal activation in human MCF7 cells at 400 nM upon UV light irradiation measured up to 6 hrs by lysotracker green DND26 dye based confocal microscopic method. The format is functional, cell-based.
In data set [25] the test system is MCF7. Description: Induction of ROS generation in human MCF7 cells at 400 nM preincubated for 30 mins followed by UV light irradiation measured after 2 hrs by H2DCFDA staining based fluorescence assay relative to control. The format is functional.

For `CCOC(=O)c1cc2c(n1Cc1ccc(OC)cc1)-c1nc(OC)c(S(=O)(=O)c3ccccc3)cc1CCC2`, the Activity entry in the data set on Jurkat [1] was “Dose-dependent effect”. The outcome in the data set on Jurkat [2], with Escherichia coli [15] and in the data set on Escherichia coli [19] was inactive. Moreover, the entries for the “Ratio CC50/EC50” value with Jurkat [3], with MCF7 [7] and with K562 [9] were over 80, over 19.71 and over 21.05, respectively. Moreover, the CC50 at 72 h in data set [4], in data set [8] and in data set [12] was over 20 µM in each case. Moreover, the result in the data set with Jurkat [5], in the data set with Escherichia coli [6], with Jurkat [10], in the data set on MCF7 [13], in the data set with Escherichia coli [16] and in the data set on Jurkat [20] was Active. The solubility entry in [11] was “Insoluble”. For the same compound, the EC50 in the data set with Jurkat [14] was 0.25 µM; in the data set on K562 [17] it was 0.95 µM; in the data set on MCF7 [18] it was 1.01 µM.

As for `COc1cccc(Cn2ccc3c2-c2[nH]c(=O)c(S(=O)(=O)c4ccccc4)cc2CCC3)c1`, the Time in data set [21] is over 30 microsec. Besides, the CC50 at 72 h in data set [4], in data set [8] and in data set [12] was over 20 µM in each case. Also, in the data set on MCF7 [7], the “Ratio CC50/EC50” value is reported as over 10.76. Besides, the EC50 with Jurkat [14] was over 20 µM; in the data set on K562 [17], over 20 µM; in the data set on MCF7 [18] it was 1.86 µM. Besides, the outcome in [22] was inactive.

Turning to `COc1nc2c(cc1S(=O)(=O)c1ccccc1)CCCc1ccn(C)c1-2`, the “Ratio CC50/EC50” value in the data set on Jurkat [3] is reported as over 10.2; with MCF7 [7] it was over 9.35; in the data set with K562 [9], over 3.47. Besides, the CC50 at 72 h in data set [4], in data set [8] and in [12] was over 20 µM each time. Moreover, the results for the EC50 in the data set on Jurkat [14], in the data set with K562 [17] and in the data set with MCF7 [18] were 1.96 µM, 5.76 µM and 2.14 µM, respectively.

For `COc1ccc(Cn2ccc3c2-c2[nH]c(=O)c(S(=O)(=O)c4ccccc4)cc2CCC3)cc1`, the results for the “Ratio CC50/EC50” value in the data set on Jurkat [3], in the data set on MCF7 [7] and with K562 [9] were over 21.51, over 4.73 and over 7.87, respectively. The 50% cytotoxic concentration (CC50) at 72 h in [4], in [8] and in data set [12] was over 20 µM in each case. Besides, the EC50 in the data set on Jurkat [14] was determined as 0.93 µM; in the data set on K562 [17], 2.54 µM; in the data set on MCF7 [18], 4.23 µM.

As to `CCCCCCCCCCCCCC(=O)O[C@@H]1[C@@H](C)[C@@]2(O)[C@@H](C=C(CO)C[C@]3(O)C(=O)C(C)=C[C@@H]23)[C@@H]2C(C)(C)[C@]12OC(C)=O` [PHORBOL MYRISTATE ACETATE], the outcome with MCF7 [23] and in the data set with MCF7 [24] was Active. The same compound yielded an Activity in the data set with MCF7 [25] of 120%.

`CCOC(=O)c1cc2c(n1C)-c1c(cc(S(=O)(=O)c3ccccc3)c(=O)n1C)CCC2`: the “Ratio CC50/EC50” value was over 17.39 in the data set on Jurkat [3], over 4.2 in the data set with MCF7 [7] and over 5.67 in the data set with K562 [9]. Further, the CC50 at 72 h in [4], in [8] and in data set [12] was over 20 µM throughout. The EC50 with Jurkat [14] amounted to 1.15 µM; with K562 [17], 3.53 µM; with MCF7 [18] it was 4.76 µM.
